These compounds were tested against T1, human CaMKIIδ (Homo sapiens, UniProt Q13557) (assay: In vitro CaMKII inhibitory activity (binding assay, TR-FRET)). Conditions: Table 1, GST-tagged human CaMKIIδ, activity ranks.
T1 construct: Full-length, glutathione-S-transferase(GST)-tagged, human CaMKIIδ was purchased from Carna Biosciences; purchased Carna Biosciences (CaMKIIδ); Wako Pure Chemical Industries (calmodulin) 02-111
Procedure: Evaluation of In Vitro CaMKII Inhibitory Activity (Binding Assay)
In vitro CaMKIIδ inhibitory activity was evaluated by a binding assay.
Full-length, glutathione-S-transferase(GST)-tagged, human CaMKIIδ was purchased from Carna Biosciences (product #02-111, Kobe, Japan). Full-length bovine calmodulin was purchased from Wako Pure Chemical Industries (Osaka, Japan). Terbium-labeled anti-GST antibody (Tb-anti-GST Ab) was purchased from Life Technologies (Carlsbad, Calif., USA). Boron-dipyrromethene (BODIPY)-labeled probe ligand was synthesized as described below.
Time-Resolved Fluorescence Resonance Energy Transfer (TR-FRET) Assay
All assays were conducted using 384-well, white, flat-bottomed plates (product #784075, Greiner Bio-One, Frickenhausen, Germany) in kinase assay buffer, which consists of 50 mM HEPES pH 7.6, 10 mM MgCl2, 1 mM EGTA, 0.01% Brig-35, 0.1 mM DTT). The fluorescent probe ligand was added at a final concentration of 300 nM to solutions containing 0.21 nM Tb-anti-GST Ab, 1 mM CaCl2, 10 μg/mL calmodulin, and 0.5 nM GST-tagged CaMKIIδ. After shaded incubation of the protein-probe mixture on ice for 30 min, the premix was dispensed in the assay plate including test inhibitors with 4 fold dilution series of eight concentrations. After 1 hr incubation at room temperature, TR-FRET signals were measured in duplicate using an EnVision microplate reader (Perkin Elmer, Waltham, Mass., USA). The solution in each well was excited with a laser (λ=340 nm) reflected by a dichroic mirror (D400/D505 (Perkin Elmer) through an excitation filter (UV (TRF) 340, (Perkin Elmer)), and fluorescence from Tb and BODIPY were detected through two emission filters (CFP 495 (Perkin Elmer) for Tb, Emission 520 (Perkin Elmer) for BODIPY).
The percentage of inhibition of test compounds was calculated according to equation (1) Inhibition(%)=100×(μH−T)/(μH−μL) (1)
Where T is the value of the wells containing test compounds and μH and μL are the mean values of the 0% and 100% inhibition control wells, respectively. The values of the 0 and 100% controls were the signals obtained in the absence and presence of 3 μM its parent compound, respectively. The half maximal inhibitory concentration (IC50) of test compounds was calculated by fitting the data with the logistic equation using XLfit (IDBS, Guildford, UK). The IC50 was classified according to the following activity ranks.

| Compound | IC50 [nM] |
| --- | --- |
| C[C@@H](Cn1cnnn1)Oc1cc(-c2cnc(Nc3cn([C@H]4CC[C@H](N5CCOCC5)CC4)nc3OCc3ccccn3)nc2)ccc1C#N [Example 129, 2-(((S)-1-(1H-tetrazol-1-yl)propan-2-yl)oxy)-4-(2-((1-((1r,4r)-4-morpholinocyclohexyl)-3-(pyridin-2-ylmethoxy)-1H-pyrazol-4-yl)amino)pyrimidin-5-yl)benzonitrile] | < 10 |
| COCCCCOc1nn([C@H]2CC[C@H](N3CCOCC3)CC2)cc1Nc1ncc(-c2ccc(Cl)c(O[C@@H](C)Cn3cnnn3)c2)cn1 [Example 151, 5-(3-(((S)-1-(1H-tetrazol-1-yl)propan-2-yl)oxy)-4-chlorophenyl)-N-(3-(4-methoxybutoxy)-1-((1r,4r)-4-morpholinocyclohexyl)-1H-pyrazol-4-yl)pyrimidin-2-amine] | < 10 |
| C[C@@H](Cn1cnnn1)Oc1cc(-c2cnc(Nc3cn([C@H]4CC[C@H](N5[C@@H]6CC[C@H]5COC6)CC4)nc3OCCCS(C)(=O)=O)nc2)ccc1Cl [Example 142, 5-(3-(((S)-1-(1H-tetrazol-1-yl)propan-2-yl)oxy)-4-chlorophenyl)-N-(1-((1r,4r)-4-((1R,5S)-3-oxa-8-azabicyclo[3.2.1]octan-8-yl)cyclohexyl)-3-(3-(methylsulfonyl)propoxy)-1H-pyrazol-4-yl)pyrimidin-2-amine] | < 10 |
| CCOCCCOc1nn([C@H]2CC[C@H](N3CCOCC3)CC2)cc1Nc1ncc(-c2ccc(Cl)c(O[C@@H](C)Cn3cnnn3)c2)cn1 [Example 34, 5-(3-(((S)-1-(1H-tetrazol-1-yl)propan-2-yl)oxy)-4-chlorophenyl)-N-(3-(3-ethoxypropoxy)-1-((1r,4r)-4-morpholinocyclohexyl)-1H-pyrazol-4-yl)pyrimidin-2-amine] | < 10 |
| COCCCCOc1nn([C@H]2CC[C@H](N3CCOCC3)CC2)cc1Nc1ncc(-c2ccc(C#N)c(O[C@@H](C)Cn3cnnn3)c2)cn1 [Example 150, 2-(((S)-1-(1H-tetrazol-1-yl)propan-2-yl)oxy)-4-(2-((3-(4-methoxybutoxy)-1-((1r,4r)-4-morpholinocyclohexyl)-1H-pyrazol-4-yl)amino)pyrimidin-5-yl)benzonitrile] | < 10 |
| C[C@@H](Cn1cnnn1)Oc1cc(-c2cnc(Nc3cn([C@H]4CC[C@H](N5CCOCC5)CC4)nc3OCc3ccccn3)nc2)ccc1Cl [Example 130, 5-(3-(((S)-1-(1H-tetrazol-1-yl)propan-2-yl)oxy)-4-chlorophenyl)-N-(1-((1r,4r)-4-morpholinocyclohexyl)-3-(pyridin-2-ylmethoxy)-1H-pyrazol-4-yl)pyrimidin-2-amine] | < 10 |
| C[C@@H](Cn1cnnn1)Oc1cc(-c2cnc(Nc3cn([C@H]4CC[C@H](N5CCOCC5)CC4)nc3O)nc2)ccc1Cl [Example 462, 4-((5-(3-(((S)-1-(1H-tetrazol-1-yl)propan-2-yl)oxy)-4-chlorophenyl)pyrimidin-2-yl)amino)-1-((1r,4r)-4-morpholinocyclohexyl)-1H-pyrazol-3-ol] | < 10 |
| CCOCCOc1nn([C@H]2CC[C@H](N3CCOCC3)CC2)cc1Nc1ncc(-c2ccc(Cl)c(O[C@@H](C)Cn3cnnn3)c2)cn1 [Example 9, 5-(3-(((S)-1-(1H-tetrazol-1-yl)propan-2-yl)oxy)-4-chlorophenyl)-N-(3-(2-ethoxyethoxy)-1-((1r,4r)-4-morpholinocyclohexyl)-1H-pyrazol-4-yl)pyrimidin-2-amine] | < 10 |

Same assay, conditions: Table 4, GST-tagged human CaMKIIδ, activity ranks

| Compound | IC50 [nM] |
| --- | --- |
| COC(C)(C)CCOc1nn([C@H]2CC[C@H](N3C[C@@H](C)O[C@@H](C)C3)CC2)cc1Nc1ncc(-c2ccc(C#N)c(O[C@@H](C)Cn3cnnn3)c2)cn1 [Example 478, 2-(((S)-1-(1H-tetrazol-1-yl)propan-2-yl)oxy)-4-(2-((1-((1r,4r)-4-((2S,6R)-2,6-dimethylmorpholino)cyclohexyl)-3-(3-methoxy-3-methylbutoxy)-1H-pyrazol-4-yl)amino)pyrimidin-5-yl)benzonitrile] | < 10 |
| C[C@@H](Cn1cnnn1)Oc1cc(-c2cnc(Nc3cn([C@H]4CC[C@H](N5CCOCC5)CC4)nc3OCC3COC3)nc2)ccc1C#N [Example 492, 2-(((S)-1-(1H-tetrazol-1-yl)propan-2-yl)oxy)-4-(2-((1-((1r,4r)-4-morpholinocyclohexyl)-3-(oxetan-3-ylmethoxy)-1H-pyrazol-4-yl)amino)pyrimidin-5-yl)benzonitrile] | < 10 |
| C[C@@H]1CN([C@H]2CC[C@H](n3cc(Nc4ncc(-c5ccc(Cl)c(O[C@@H](C)Cn6cnnn6)c5)cn4)c(OCCCO)n3)CC2)C[C@H](C)O1 [Example 475, 3-((4-((5-(3-(((S)-1-(1H-tetrazol-1-yl)propan-2-yl)oxy)-4-chlorophenyl)pyrimidin-2-yl)amino)-1-((1r,4r)-4-((2S,6R)-2,6-dimethylmorpholino)cyclohexyl)-1H-pyrazol-3-yl)oxy)propan-1-ol] | < 10 |
| COCCOCCCOc1nn([C@H]2CC[C@H](N3CCOCC3)CC2)cc1Nc1ncc(-c2ccc(C#N)c(O[C@@H](C)Cn3cnnn3)c2)cn1 [Example 490, 2-(((S)-1-(1H-tetrazol-1-yl)propan-2-yl)oxy)-4-(2-((3-(3-(2-methoxyethoxy)propoxy)-1-((1r,4r)-4-morpholinocyclohexyl)-1H-pyrazol-4-yl)amino)pyrimidin-5-yl)benzonitrile] | < 10 |
| COC(C)(C)CCOc1nn([C@H]2CC[C@H](N3CCOCC3)CC2)cc1Nc1ncc(-c2ccc(C#N)c(O[C@@H](C)Cn3cnnn3)c2)cn1 [Example 496, 2-(((S)-1-(1H-tetrazol-1-yl)propan-2-yl)oxy)-4-(2-((3-(3-methoxy-3-methylbutoxy)-1-((1r,4r)-4-morpholinocyclohexyl)-1H-pyrazol-4-yl)amino)pyrimidin-5-yl)benzonitrile] | < 10 |
| C[C@@H](Cn1cnnn1)Oc1cc(-c2cnc(Nc3cn([C@H]4CC[C@H](N5CCOCC5)CC4)nc3OCC3CCOCC3)nc2)ccc1Cl [Example 497, 5-(3-(((S)-1-(1H-tetrazol-1-yl)propan-2-yl)oxy)-4-chlorophenyl)-N-(1-((1r,4r)-4-morpholinocyclohexyl)-3-((tetrahydro-2H-pyran-4-yl)methoxy)-1H-pyrazol-4-yl)pyrimidin-2-amine] | < 10 |
| C[C@@H](Cn1cnnn1)Oc1cc(-c2cnc(Nc3cn([C@H]4CC[C@H](N5CCOCC5)CC4)nc3OCc3ncccn3)nc2)ccc1Cl [Example 509, 5-(3-(((S)-1-(1H-tetrazol-1-yl)propan-2-yl)oxy)-4-chlorophenyl)-N-(1-((1r,4r)-4-morpholinocyclohexyl)-3-(pyrimidin-2-ylmethoxy)-1H-pyrazol-4-yl)pyrimidin-2-amine] | 10 to 100 |
| C[C@@H]1CN([C@H]2CC[C@H](n3cc(Nc4ncc(-c5ccc(C#N)c(O[C@@H](C)Cn6cnnn6)c5)cn4)c(OCC4CCOCC4)n3)CC2)C[C@H](C)O1 [Example 483, 2-(((S)-1-(1H-tetrazol-1-yl)propan-2-yl)oxy)-4-(2-((1-((1r,4r)-4-((2S,6R)-2,6-dimethylmorpholino)cyclohexyl)-3-((tetrahydro-2H-pyran-4-yl)methoxy)-1H-pyrazol-4-yl)amino)pyrimidin-5-yl)benzonitrile] | < 10 |
| C[C@@H]1CN([C@H]2CC[C@H](n3cc(Nc4ncc(-c5ccc(C#N)c(O[C@@H](C)Cn6cnnn6)c5)cn4)c(OCC4COC4)n3)CC2)C[C@H](C)O1 [Example 479, 2-(((S)-1-(1H-tetrazol-1-yl)propan-2-yl)oxy)-4-(2-((1-((1r,4r)-4-((2S,6R)-2,6-dimethylmorpholino)cyclohexyl)-3-(oxetan-3-ylmethoxy)-1H-pyrazol-4-yl)amino)pyrimidin-5-yl)benzonitrile] | < 10 |
| C[C@@H](Cn1cnnn1)Oc1cc(-c2cnc(Nc3cn([C@H]4CC[C@H](N5CCOCC5)CC4)nc3OCC3CCCOC3)nc2)ccc1Cl (stereo partly drawn) [Example 499, 5-(3-(((S)-1-(1H-tetrazol-1-yl)propan-2-yl)oxy)-4-chlorophenyl)-N-(1-((1r,4r)-4-morpholinocyclohexyl)-3-((tetrahydro-2H-pyran-3-yl)methoxy)-1H-pyrazol-4-yl)pyrimidin-2-amine] | < 10 |
| C[C@@H]1CN([C@H]2CC[C@H](n3cc(Nc4ncc(-c5ccc(Cl)c(O[C@@H](C)Cn6cnnn6)c5)cn4)c(OCCCOCCO)n3)CC2)C[C@H](C)O1 [Example 474, 2-(3-((4-((5-(3-(((S)-1-(1H-tetrazol-1-yl)propan-2-yl)oxy)-4-chlorophenyl)pyrimidin-2-yl)amino)-1-((1r,4r)-4-((2S,6R)-2,6-dimethylmorpholino)cyclohexyl)-1H-pyrazol-3-yl)oxy)propoxy)ethan-1-ol] | < 10 |

Reference: patent US11130752B2, “Aminopyrimidine compound” (Cardurion Pharmaceuticals, LLC, priority 2018, dated 2021)
